Data set [1] relates to HepG2. The experiment in a line: cells. The note with it: Homo sapiens, HepG2, 48 h.
Description: Cytotoxicity against Homo sapiens (human) HepG2 cells after 48 hr by MTT assay
For data set [2] the following is noted: octanol/water.
Description: Lipophilicity, log P of the compound
The subject of data set [3] is MDA-MB-231. The experiment in a line: cells. The note with it: Homo sapiens, MDA-MB-231, 48 h.
Description: Cytotoxicity against Homo sapiens (human) MDA-MB-231 cells after 48 hr by MTT assay
For data set [4], the system named is K562. The experiment in a line: cells. The note with it: Homo sapiens, K562, 48 h.
Description: Cytotoxicity against Homo sapiens (human) K562 cells after 48 hr by MTT assay
Data set [5] is described as follows: physchem. As to conditions: octanol/water.
Description: Lipophilicity, log P of the compound

The IC50 is the point on the concentration scale where inhibition reaches its midpoint. Low readings indicate greater potency in that assay, high ones weaker potency in that assay. For orientation: logP means a log measure of how a compound divides between an organic and an aqueous phase. A lower logP goes with a more hydrophilic compound. Take `Cc1ccc(OP2(=O)NCC(C)(C)CN2)cc1`: the values for the IC50 in data set [1], in data set [3] and in data set [4] were 2200 nM, 230 nM and 1440 nM, respectively. The compound also showed a lipophilicity (logP) in data set [2] of 0.12.
Turning to `O=P1(Nc2ccccc2)NCCCO1` (stereo not drawn), the IC50 amounted to 600 nM in data set [1], 830 nM in data set [3] and 550 nM in data set [4]. Also, the logP in data set [5] was 0.29.
Turning to `NS(=O)(=O)c1ccc(NP2(=O)NCCCO2)cc1` (stereo not drawn), the half-inhibitory concentration (IC50) amounted to 140 nM in data set [1], 170 nM in data set [3] and 150 nM in data set [4]. Besides, in data set [5], the logP was 1.88.
Taken in the same sequence, the figures for `COc1ccc(NP2(=O)NCCCO2)cc1` (stereo not drawn) were 60 nM, 230 nM, 200 nM and -0.71.
As to `O=[N+]([O-])c1ccc(NP2(=O)NCCCO2)cc1` (stereo not drawn), the concentration for half-maximal inhibition (IC50) is 150 nM in data set [1], 90 nM in data set [3] and 890 nM in data set [4]. This compound also came in with a log partition coefficient (logP) in data set [5] of -0.53.
Taken in the same sequence, the figures for `Cc1ccc(OP2(=O)NCCCO2)cc1` (stereo not drawn) were 590 nM, 870 nM, 710 nM and 0.76.
As for `NS(=O)(=O)c1ccc(NP2(=O)NCCCN2)cc1`, the results for the IC50 in data set [1], in data set [3] and in data set [4] were 130 nM, 110 nM and 190 nM, respectively. This compound displayed a logP in data set [5] of 1.56.
On the same counts, the results for `CC1(C)CNP(=O)(Nc2ccccc2)NC1` are 3170 nM, 2040 nM, 3110 nM and -0.03.
With `O=P1(N(CCCl)CCCl)NCCCO1` (stereo not drawn) [CYCLOPHOSPHAMIDE ANHYDROUS], the concentration for half-maximal inhibition (IC50) in data set [1] stood at 240 nM; in data set [3], 90 nM; in data set [4], 150 nM.
Taken in the same sequence, the figures for `Nc1ccc(S(N)(=O)=O)cc1` [SULFANILAMIDE] were 80 nM, 90 nM and 200 nM.

The values are drawn from ChEMBL document CHEMBL3045968, “Antitumor activities of some new 1,3,2-oxaza- and 1,3,2-diazaphosphorinanes against K562, MDA-MB-231, and HepG2 cells” (Med Chem Res, 2012).
